Source: the NIST ThermoML archive (doi:10.1016/j.jct.2014.07.018)
± gives the expanded uncertainty stated by the source.

Assay: molar heat capacity at constant pressure
Conditions: 101.33 kPa, Vacuum adiabatic calorimetry

CCCCn1cc[n+](C)c1.[I-] [1-butyl-3-methylimidazolium iodide]
Conditions | molar heat capacity at constant pressure [J/K/mol]
168.81 K, Crystal | 158.7 ± 0.7
169.51 K, Crystal | 159.1 ± 0.7
170 K, Crystal | 159.4 ± 0.7
170 K, Glass | 172.3 ± 0.8
170.6 K, Glass | 172.7 ± 0.7
170.88 K, Crystal | 159.9 ± 0.7
171.57 K, Crystal | 160.3 ± 0.7
172.61 K, Glass | 174 ± 0.7
172.94 K, Crystal | 161.1 ± 0.7
173.64 K, Crystal | 161.5 ± 0.7
174.62 K, Glass | 175.4 ± 0.8
175.01 K, Crystal | 162.3 ± 0.7
175.71 K, Crystal | 162.7 ± 0.7
176.63 K, Glass | 176.8 ± 0.8
177.07 K, Crystal | 163.5 ± 0.7
177.77 K, Crystal | 163.9 ± 0.7
178.63 K, Glass | 178.2 ± 0.8
179.14 K, Crystal | 164.8 ± 0.7
179.83 K, Crystal | 165.2 ± 0.7
180 K, Crystal | 165.3 ± 0.7
180 K, Glass | 179.1 ± 0.8
180.64 K, Glass | 179.6 ± 0.8
181.2 K, Crystal | 166.1 ± 0.7
181.89 K, Crystal | 166.6 ± 0.7
182.64 K, Glass | 181 ± 0.8
183.26 K, Crystal | 167.6 ± 0.7
183.95 K, Crystal | 168.1 ± 0.7
184.64 K, Glass | 182.6 ± 0.8
185.31 K, Crystal | 169.1 ± 0.7
186 K, Crystal | 169.6 ± 0.7
186.65 K, Glass | 184.1 ± 0.8
187.36 K, Crystal | 170.6 ± 0.7
188.05 K, Crystal | 171.1 ± 0.7
188.65 K, Glass | 185.7 ± 0.8
189.41 K, Crystal | 171.9 ± 0.7
190 K, Crystal | 172.3 ± 0.7
190 K, Glass | 186.7 ± 0.8
190.1 K, Crystal | 172.4 ± 0.7
190.65 K, Glass | 187.2 ± 0.8
191.46 K, Crystal | 173.3 ± 0.7
192.15 K, Crystal | 173.7 ± 0.7
192.65 K, Glass | 188.9 ± 0.8
193.51 K, Crystal | 174.5 ± 0.7
194.2 K, Crystal | 174.9 ± 0.8
194.65 K, Glass | 191 ± 0.8
195.56 K, Crystal | 175.7 ± 0.8
196.24 K, Crystal | 176.1 ± 0.8
196.66 K, Glass | 193 ± 0.8
197.6 K, Crystal | 176.9 ± 0.8
198.29 K, Crystal | 177.3 ± 0.8
198.66 K, Glass | 195.4 ± 0.8
199.65 K, Crystal | 178.1 ± 0.8
200 K, Crystal | 178.3 ± 0.8
200 K, Glass | 197.5 ± 0.8
200.33 K, Crystal | 178.5 ± 0.8
200.66 K, Glass | 198.5 ± 0.8
201.69 K, Crystal | 179.3 ± 0.8
202.37 K, Crystal | 179.8 ± 0.8
202.93 K, Glass | 204.1 ± 0.9
203.73 K, Crystal | 180.5 ± 0.8
204.41 K, Crystal | 180.9 ± 0.8
205.45 K, Glass | 214.4 ± 0.9
205.77 K, Crystal | 181.8 ± 0.8
206.45 K, Crystal | 182.2 ± 0.8
207.77 K, Liquid | 247.8 ± 1.1
207.8 K, Crystal | 183 ± 0.8
208.48 K, Crystal | 183.4 ± 0.8
209.84 K, Crystal | 184.3 ± 0.8
209.86 K, Liquid | 287.7 ± 1.2
210 K, Crystal | 184.3 ± 0.8
210 K, Liquid | 287.6 ± 1.2
210.52 K, Crystal | 184.6 ± 0.8
211.87 K, Crystal | 185.5 ± 0.8
212.03 K, Liquid | 285.8 ± 1.2
212.55 K, Crystal | 185.9 ± 0.8
213.91 K, Crystal | 186.8 ± 0.8
214.19 K, Liquid | 286.4 ± 1.2
214.58 K, Crystal | 187.2 ± 0.8
215.94 K, Crystal | 188.1 ± 0.8
216.37 K, Liquid | 286.6 ± 1.2
216.61 K, Crystal | 188.6 ± 0.8
217.97 K, Crystal | 189.5 ± 0.8
218.54 K, Liquid | 287.1 ± 1.2
218.63 K, Crystal | 190.1 ± 0.8
219.99 K, Crystal | 191 ± 0.8
220 K, Crystal | 191 ± 0.8
220 K, Liquid | 287.3 ± 1.2
220.66 K, Crystal | 191.6 ± 0.8
220.72 K, Liquid | 287.4 ± 1.2
222.01 K, Crystal | 192.5 ± 0.8
222.11 K, Liquid | 287.7 ± 1.2
222.67 K, Crystal | 193 ± 0.8
222.9 K, Liquid | 287.9 ± 1.2
224.03 K, Crystal | 194 ± 0.8
224.39 K, Liquid | 288.2 ± 1.2
224.69 K, Crystal | 194.5 ± 0.8
225.09 K, Liquid | 288.5 ± 1.2
226.04 K, Crystal | 195.5 ± 0.8
226.56 K, Liquid | 288.5 ± 1.2
226.7 K, Crystal | 196 ± 0.8
226.71 K, Liquid | 288.5 ± 1.2
227.28 K, Liquid | 288.7 ± 1.2
227.61 K, Crystal | 196.7 ± 0.8
228.05 K, Crystal | 197.1 ± 0.8
228.71 K, Crystal | 197.5 ± 0.8
228.74 K, Liquid | 289 ± 1.2
228.79 K, Liquid | 289 ± 1.2
229.47 K, Liquid | 289.3 ± 1.2
229.61 K, Crystal | 198.3 ± 0.8
230 K, Crystal | 198.5 ± 0.9
230 K, Liquid | 289.4 ± 1.3
230.06 K, Crystal | 198.5 ± 0.8
230.71 K, Crystal | 198.9 ± 0.8
230.77 K, Liquid | 289.5 ± 1.2
230.93 K, Liquid | 289.5 ± 1.2
231.61 K, Crystal | 199.7 ± 0.8
231.66 K, Liquid | 289.8 ± 1.2
232.06 K, Crystal | 200 ± 0.9
232.71 K, Crystal | 200.6 ± 0.9
232.76 K, Liquid | 289.8 ± 1.2
233.11 K, Liquid | 290.1 ± 1.2
233.61 K, Crystal | 201.3 ± 0.9
233.72 K, Liquid | 290.1 ± 1.2
233.86 K, Liquid | 290.3 ± 1.2
234.06 K, Crystal | 201.7 ± 0.9
234.71 K, Crystal | 202 ± 0.9
234.74 K, Liquid | 290.3 ± 1.2
235.3 K, Liquid | 290.6 ± 1.2
235.61 K, Crystal | 202.8 ± 0.9
235.72 K, Liquid | 290.6 ± 1.2
236.05 K, Crystal | 203.2 ± 0.9
236.05 K, Liquid | 290.9 ± 1.2
236.7 K, Crystal | 203.6 ± 0.9
236.72 K, Liquid | 290.9 ± 1.2
237.48 K, Liquid | 291.1 ± 1.2
237.6 K, Crystal | 204.3 ± 0.9
237.71 K, Liquid | 291.1 ± 1.2
238.04 K, Crystal | 204.8 ± 0.9
238.25 K, Liquid | 291.4 ± 1.2
238.69 K, Crystal | 205.3 ± 0.9
238.71 K, Liquid | 291.4 ± 1.2
239.6 K, Crystal | 205.9 ± 0.9
239.67 K, Liquid | 291.7 ± 1.2
